Literature values, collected in US12409168B2, “Formulations of aminopenicillin and methods for solubilizing aminopenicillin” (VETERINARY PHARMACY CORPORATION, priority 2023, dated 2025).

In the case of `CC1(C)S[C@@H]2[C@H](NC(=O)[C@H](N)c3ccc(O)cc3)C(=O)N2[C@H]1C(=O)O` [Amoxicillin], the “degradation at 24 hours” value (0.00015 mg/ml, 24 hours) is given as “no degradation” and the “degradation to (potency remaining) at 24 hours” value (0.42 mg/ml, buffered solution, pH 8.04, 24 hours) is given as 73%.
